According to ChEMBL document CHEMBL1135110, “Structure-based design of peptidomimetic antagonists of p56(lck) SH2 domain” (Bioorg Med Chem Lett, 2002):
Non-standard residues stand in square brackets, D forms with d. Residues, ends and D or L forms follow the SMILES beside them. pY = N[C@@H](Cc1ccc(OP(=O)(O)O)cc1)C(=O)O

Target: Tyrosine-protein kinase Lck (Homo sapiens, UniProt P06239)
Assay: Inhibitory activity towards p56 Lck tyrosine kinase SH2 domain using scintillation proximity assay (SPA)

Sequence of Tyrosine-protein kinase Lck (P06239 whole entry, the tested form may be a part): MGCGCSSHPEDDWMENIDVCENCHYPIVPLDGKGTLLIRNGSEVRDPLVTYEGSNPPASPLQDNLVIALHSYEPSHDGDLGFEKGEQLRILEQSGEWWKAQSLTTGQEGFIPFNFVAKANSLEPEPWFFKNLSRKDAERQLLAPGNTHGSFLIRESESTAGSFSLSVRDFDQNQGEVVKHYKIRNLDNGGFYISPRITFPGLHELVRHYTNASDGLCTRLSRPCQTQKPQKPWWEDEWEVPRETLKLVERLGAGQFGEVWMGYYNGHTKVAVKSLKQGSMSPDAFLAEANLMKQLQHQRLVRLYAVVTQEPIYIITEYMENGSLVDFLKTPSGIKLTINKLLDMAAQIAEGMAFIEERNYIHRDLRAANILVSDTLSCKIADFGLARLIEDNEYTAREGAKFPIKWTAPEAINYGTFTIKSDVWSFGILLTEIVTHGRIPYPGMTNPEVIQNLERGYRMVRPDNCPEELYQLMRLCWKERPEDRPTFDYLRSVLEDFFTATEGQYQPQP

Row | SMILES | IC50
1 | CC(=O)N[C@@H](Cc1ccc(OP(=O)(O)O)cc1)C(=O)N[C@H]1CCC(=O)N2CCC[C@@H](C(=O)NCC3CCCCC3)N2C1=O | 1600 nM
2 | CC[C@H](C)[C@H](NC(=O)[C@H](CCC(=O)O)NC(=O)[C@H](CCC(=O)O)NC(=O)[C@H](Cc1ccc(OP(=O)(O)O)cc1)NC(C)=O)C(=O)N1CCC[C@@H]1C(=O)NC | 1600 nM
3 | CC[C@@H](C)CNC(=O)[C@@H]1CCCN2C(=O)CC[C@H](NC(=O)[C@H](Cc3ccc(OP(=O)(O)O)cc3)NC(C)=O)C(=O)N12 | 1200 nM
4 | CCNC(=O)[C@@H]1CCCN2C(=O)CC[C@H](NC(=O)[C@H](Cc3ccc(OP(=O)(O)O)cc3)NC(C)=O)C(=O)N12 | 8500 nM
5 | CC(=O)N[C@@H](Cc1ccc(OP(=O)(O)O)cc1)C(=O)N[C@H]1CCC(=O)N2CCC[C@@H](C(=O)NCc3ccc(O)cc3)N2C1=O | 10000 nM
6 | CC[C@H](C)[C@H](NC(=O)[C@H](CCC(=O)O)NC(=O)[C@H](CCC(=O)O)NC(=O)[C@H](Cc1ccc(OP(=O)(O)O)cc1)NC(C)=O)C(=O)NC | 2000 nM
7 | CC(=O)N[C@@H](Cc1ccc(OP(=O)(O)O)cc1)C(=O)N[C@H]1CCC(=O)N2CCC[C@@H](C(=O)NCc3cccc4ccccc34)N2C1=O | 1900 nM
8 | CC(=O)N[C@@H](Cc1ccc(OP(=O)(O)O)cc1)C(=O)N[C@H]1CCC(=O)N2CCC[C@@H](C(=O)NCc3ccc(Cl)cc3)N2C1=O | 400 nM
9 | CC(=O)N[C@@H](Cc1ccc(OP(=O)(O)O)cc1)C(=O)N[C@H]1CCC(=O)N2CCC[C@@H](C(=O)Nc3cccc4ccccc34)N2C1=O | 1100 nM
10 | CC[C@H](C)[C@H](NC(=O)[C@@H]1CCCN2C(=O)CC[C@H](NC(=O)[C@H](Cc3ccc(OP(=O)(O)O)cc3)NC(C)=O)C(=O)N12)C(=O)NC | 1600 nM
11 | CCCCNC(=O)[C@@H]1CCCN2C(=O)CC[C@H](NC(=O)[C@H](Cc3ccc(OP(=O)(O)O)cc3)NC(C)=O)C(=O)N12 | 1900 nM
12 | CNC(=O)[C@H](CCC(=O)O)NC(=O)[C@H](Cc1ccc(OP(=O)(O)O)cc1)NC(C)=O (Ac-[pY]-Glu-NHMe) | 350000 nM
13 | CC[C@H](C)[C@H](NC(=O)[C@@H]1CCCN1C(=O)[C@@H](NC(=O)[C@H](CCC(=O)O)NC(=O)[C@H](CCC(=O)O)NC(=O)[C@H](Cc1ccc(OP(=O)(O)O)cc1)NC(=O)[C@H](CCC(N)=O)NC(=O)[C@@H]1CCCN1C(=O)[C@@H](N)CCC(=O)O)[C@@H](C)CC)C(=O)N[C@@H](Cc1ccc(O)cc1)C(=O)N[C@@H](CC(C)C)C(=O)O (H-EPQ[pY]EEIPIYL-OH) | 360 nM
14 | CC(=O)N[C@@H](Cc1ccc(OP(=O)(O)O)cc1)C(=O)N[C@H]1CCC(=O)N2CCC[C@@H](C(=O)NCC34CC5CC(CC(C5)C3)C4)N2C1=O | 1100 nM
15 | CCCCCNC(=O)[C@@H]1CCCN2C(=O)CC[C@H](NC(=O)[C@H](Cc3ccc(OP(=O)(O)O)cc3)NC(C)=O)C(=O)N12 | 1800 nM
16 | CNC(=O)[C@H](CCC(=O)O)NC(=O)[C@H](CCC(=O)O)NC(=O)[C@H](Cc1ccc(OP(=O)(O)O)cc1)NC(C)=O (Ac-[pY]-Glu-Glu-NHMe) | 17000 nM
17 | CCCNC(=O)[C@@H]1CCCN2C(=O)CC[C@H](NC(=O)[C@H](Cc3ccc(OP(=O)(O)O)cc3)NC(C)=O)C(=O)N12 | 6000 nM
18 | CC(=O)N[C@@H](Cc1ccc(OP(=O)(O)O)cc1)C(=O)N[C@H]1CCC(=O)N2CCC[C@@H](C(=O)NCC(C)(C)C)N2C1=O | 1800 nM

Continued, values first:

Row | IC50 | SMILES
19 | 2800 nM | CC(=O)N[C@@H](Cc1ccc(OP(=O)(O)O)cc1)C(=O)N[C@H]1CCC(=O)N2CCC[C@@H](C(=O)N[C@H]3C[C@@H](C(=O)O)c4ccccc43)N2C1=O
20 | 7700 nM | CC(=O)N[C@@H](Cc1ccc(OP(=O)(O)O)cc1)C(=O)N[C@H]1CCC(=O)N2CCC[C@@H](C(=O)NC3CC(C(=O)O)c4ccccc43)N2C1=O (stereo in doubt; 34)
21 | 7300 nM | CC(=O)N[C@@H](Cc1ccc(OP(=O)(O)O)cc1)C(=O)N[C@H]1CCC(=O)N2CCC[C@@H](C(=O)NC3CC(C(=O)O)c4ccccc43)N2C1=O (stereo in doubt; 35)
22 | 2000 nM | CC(=O)N[C@@H](Cc1ccc(OP(=O)(O)O)cc1)C(=O)N[C@H]1CCC(=O)N2CCC[C@@H](C(=O)N[C@H]3C[C@H](C(=O)O)c4ccccc43)N2C1=O
23 | 30 nM | CC(=O)N[C@@H](Cc1ccc(OP(=O)(O)O)cc1)C(=O)N[C@H]1CCC(=O)N2CCC[C@@H](C(=O)N[C@@H]3C[C@H](C(=O)O)c4ccccc43)N2C1=O
24 | 1500 nM | CC(=O)N[C@@H](Cc1ccc(OP(=O)(O)O)cc1)C(=O)N[C@H]1CCC(=O)N2CCC[C@@H](C(=O)NCc3ccccc3)N2C1=O
25 | 100 nM | CC(=O)N[C@@H](Cc1ccc(OP(=O)(O)O)cc1)C(=O)N[C@H]1CCC(=O)N2CCC[C@@H](C(=O)N[C@@H]3C[C@@H](C(=O)O)c4ccccc43)N2C1=O
26 | 1200 nM | CC(=O)N[C@@H](Cc1ccc(OP(=O)(O)O)cc1)C(=O)N[C@H]1CCC(=O)N2CCC[C@@H](C(=O)NC3CCc4ccccc43)N2C1=O (stereo partly specified)
